Patent publication US12077483B2, “Modified amine lipids” (Intellia Therapeutics, Inc., priority 2018, dated 2024)

How the values were obtained:
TTR in HUH7 cells = assay: In vitro editing in HUH7 cells, LNP with Cas9 mRNA and sgRNA G000502, NGS; type: cell-based, human; conditions: Table 14; 2000 ng RNA per well, cells harvested 6 hours post-transfection, biological duplicate, G000502 target locus
Description: A series of compounds based on Compound 46 that vary by the inclusion of a C4-12 alkyl at the R^3 position of Formula (IA) (as illustrated in FIG. 13A) were tested for in vitro editing. The human hepatocellular carcinoma cell line […] (Japanese Collection of Research Bioresources Cell Bank, Cat. JCRB0403) was cultured in DMEM media supplemented with 10% fetal bovine serum and 1% Penicillin-Streptomycin. Cells were plated at a density of 20,000 cells/well in a 96-well plate 24 hours prior to transfection (˜80% confluent at time of transfection). The LNPs were formulated at a 1:2 w/w ratio of sgRNA and Cas9 mRNA using the cross flow procedure with lipid molar compositions as described in Table 13 at an N/P ratio of 6.0. LNP compositions were analyzed for average particle size, polydispersity (pdi), total RNA content and encapsulation efficiency of RNA as described in Example 115. Analysis of average particle size, polydispersity (PDI), total RNA content and encapsulation efficiency of RNA are shown in Table 13. LNPs were diluted into media, incubated for 5 minutes at 37 C and pipetted onto cells at a dose of 2000 ng RNA per well. Each condition was assayed in biological duplicate. Cells were harvested post-transfection at 6 hours. Genomic DNA was extracted using 50 μL/well BuccalAmp DNA Extraction solution (Epicentre, Cat. QE09050) according to manufacturer's protocol. All DNA samples were subjected to PCR and subsequent NGS analysis for editing at the G000502 target locus, as described above. As shown in Table 14 and FIG. 13B, all compounds tested were efficacious for in vitro editing.

[1] = RNA encapsulation efficiency of LNP (Ribogreen fluorescence assay); type: physicochemical; conditions: Table 13; LNP sgRNA:Cas9 mRNA 1:2 w/w, N/P 6.0
Summary of the method: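 LNP samples diluted in 1× TE with or without 0.2% Triton-X 100 for total or free RNA, stained ~10 min at room temperature in the dark with RiboGreen; fluorescence ex 488/em 525 nm against RNA standard curves. Encapsulation efficiency = (Total RNA−Free RNA)/Total RNA.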

[2] = pKa of amine lipid by TNS fluorescence; type: physicochemical; conditions: probe TNS (6-(p-toluidino)-2-naphthalenesulfonic acid sodium salt), unformulated amine lipid in ethanol, sodium phosphate buffers -9.0
Summary of the method: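 Unformulated amine lipid, about 100 μM final, in 0.1 M sodium phosphate buffers spanning pH 4.5–9.0 with TNS. Fluorescence read at ex 321/em 448 nm; normalized data fitted sigmoidally to give pKa.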

[3] = LNP average particle size and polydispersity by dynamic light scattering; type: physicochemical; conditions: Table 13; LNP sgRNA:Cas9 mRNA 1:2 w/w, N/P 6.0
Summary of the method: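 LNPs were diluted in PBS to a count rate of about 200-400 kcps and measured by DLS on a Zetasizer. Size is the intensity-weighted Z-average diameter, reported with number-average diameter, and the polydispersity index describes the spread of sizes around the mean.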

mouse TTR = assay: Serum TTR ELISA in mice after LNP delivery; type: in vivo
Summary of the method: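 Female CD-1 mice received LNP at 0.1 mpk unless noted; serum was collected 6 or 7 days later. Total serum TTR was measured by mouse prealbumin ELISA at 10,000- and/or 2,500-fold dilution and is expressed as a percentage of vehicle control.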

mouse TTR gene = assay: In vivo editing in mouse liver, LNP with Cas9 mRNA and sgRNA G282, NGS; conditions: Table 3; guide G282; CD-1 female mice, 0.1 mpk i.v., liver at 6 or 7 days; Exp. 1, 8, 9, 10
Description: LNPs were prepared using various amine lipids in a 4-component lipid system consisting of an ionizable lipid (e.g. an amine lipid), DSPC, cholesterol and PEG-2k-DMG. In assays for percent liver editing in mice, Cas9 mRNA and chemically modified sgRNA targeting a mouse sequence were formulated in LNPs, at either a 1:1 w/w ratio or a 1:2 w/w ratio.
The lipid components were dissolved in 100% ethanol with the lipid component molar ratios described below. The chemically modified sgRNA and Cas9 mRNA were combined and dissolved in 25 mM citrate, 100 mM NaCl, pH 5.0, resulting in a concentration of total RNA cargo of approximately 0.45 mg/mL. The LNPs were formulated with an N/P ratio of about 6, with the ratio of chemically modified sgRNA: Cas9 mRNA at either a 1:1 or 1:2 w/w ratio as described below.
CD-1 female mice, ranging from 6-10 weeks of age were used in each study. Animals were weighed and grouped according to body weight for preparing dosing solutions based on group average weight. LNPs were dosed via the lateral tail vein in a volume of 0.2 mL per animal (approximately 10 mL per kilogram body weight). The animals were periodically observed for adverse effects for at least 24 hours post dose.
For studies measuring in vivo editing in liver, CD-1 female mice were dosed at 0.1 mpk unless otherwise noted. Animals were euthanized at 6 or 7 days by exsanguinationvia cardiac puncture under isoflourane anesthesia. Liver tissue was collected from each animal for DNA extraction and analysis. Blood was collected into serum separator tubes or into tubes containing buffered sodium citrate for plasma as described herein. Cohorts of mice were measured for editing by Next-Generation Sequencing (NGS).
In brief, to quantitatively determine the efficiency of editing at the target location in the genome, genomic DNA was isolated and deep sequencing was utilized to identify the presence of insertions and deletions introduced by gene editing.
PCR primers were designed around the target site (e.g., B2M), and the genomic area of interest was amplified. Additional PCR was performed according to the manufacturer's protocols (Illumina) to add the necessary chemistry for sequencing. The amplicons were sequenced on an Illumina MiSeq instrument. The reads were aligned to the relevant reference genome (e.g., GRCm38) after eliminating those having low quality scores. The resulting files containing the reads were mapped to the reference genome (BAM files), where reads that overlapped the target region of interest were selected and the number of wild type reads versus the number of reads which contain an insertion, substitution, or deletion was calculated.
The editing percentage (e.g., the “editing efficiency” or “percent editing”) is defined as the total number of sequence reads with insertions or deletions over the total number of sequence reads, including wild type.
We assessed in vivo editing efficiency for materials delivered with formulations including various amine lipid compounds. Editing was measured using either G282 (SEQ ID No: 1) which targets the mouse TTR gene or G650 (SEQ ID No. 2) which targets the mouse B2M gene. Lipids described above were assessed for efficacy through in vivo editing experiments. LNPs were formulated at a 1:1 w/w ratio of sgRNA to Cas9 mRNA, and at an N/P ratio of about 6. Molar concentrations of lipids in the lipid component of the LNPs are expressed as mol % amine lipid/DSPC/cholesterol/PEG-2k-DMG, e.g. 50/10/38.5/1.5. The final LNPs were characterized to determine the encapsulation efficiency, polydispersity index, and average particle size according to the analytical methods provided above. Analysis of average particle size, polydispersity (PDI), total RNA content and encapsulation efficiency of RNA are shown in Table 2.
To assess whether the editing was dose responsive, experiments were performed in vivo at various LNP dose levels. […]

% E [1] | pKa [2] | Number Average [nm] [3] | PDI [3] | Z-Ave Size (nm) [3] | SMILES | Editing (TTR in HUH7 cells) | Serum TTR % TSS (mouse TTR; mouse serum, relative to TSS control of same experiment, dose 0.03 mpk) | Serum TTR % TSS (mouse TTR; mouse serum, relative to TSS control of same experiment, dose 0.1 mpk) | Serum TTR (mouse TTR; Table 3, guide G282, CD-1 female mice, 0.1 mpk i.v., Exp. 1, 8, 9, 10) | Serum TTR % TSS (mouse TTR; Table 3, guide G282, CD-1 female mice, 0.1 mpk i.v., percentage of vehicle control (TSS)) | Editing Mean % Indel (mouse TTR gene)
99% | 6.16 | 76.76 nm | 0.003 | 94.54 nm | CCCCC/C=C\C/C=C\CCCCCCCC(=O)OCC(COC(=O)CCCCCCC/C=C\C/C=C\CCCCC)OC(=O)CCC(CCCCCCCCCCCC)OC(=O)NCCN1CCCC1 (centres unmarked) [Compound 46, 2-((4-(((2-(pyrrolidin-1l-yl)ethyl)carbamoyl)oxy)hexadecanoyl)oxy)propane-1,3-diyl (9Z,9′Z,12Z,12′Z)-bis(octadeca-9,12-dienoate)] | 63.7% | – | – | – | – | –
– | 6.74 | – | – | – | CCCCC/C=C\C/C=C\CCCCCCCC(=O)OCC(COC(=O)CCCCCCC/C=C\C/C=C\CCCCC)OC(=O)CCC(CCCCCCC)OC(=O)NCCN1CCCC1 (centres unmarked) [Compound 76, 2-((4-(((2-(pyrrolidin-1l-yl)ethyl)carbamoyl)oxy)undecanoyl)oxy)propane-1,3-diyl (9Z,9′Z,12Z,12′Z)-bis(octadeca-9,12-dienoate)] | 61.2% | 69.72 % TSS | 12.79 % TSS | – | – | –
96% | 7.02 | 93.05 nm | 0.045 | 117.1 nm | CCCCC/C=C\C/C=C\CCCCCCCC(=O)OCC(COC(=O)CCCCCCC/C=C\C/C=C\CCCCC)OC(=O)CCC(CCCC)OC(=O)NCCN1CCCC1 (centres unmarked) [Compound 85, 2-((4-(((2-(pyrrolidin-1-yl)ethyl)carbamoyl)oxy)octanoyl)oxy)propane-1,3-diyl (9Z,9′Z,12Z,12′Z)-bis(octadeca-9,12-dienoate)] | 66.4% | – | – | – | – | –
– | 6.93 | – | – | – | CCCCC/C=C\C/C=C\CCCCCCCC(=O)OCC(COC(=O)CCCCCCC/C=C\C/C=C\CCCCC)OC(=O)NCCN(C)CC [Compound 114, 2-(((2-(ethyl(methyl)amino)ethyl)carbamoyl)oxy)propane-1,3-diyl (9Z,9′Z,12Z,12′Z)-bis(octadeca-9,12-dienoate), reference compound] | – | – | – | 637 µg/mL | 78% TSS | 0.8%
